Assay results from patent US10577333B2, “Tetrazole derivatives as cytochrome P450 inhibitors” (C26 Bioscience AB, priority 2016, dated 2020).

Assays:
[1] = system: atRA responsive genes CYP26B1 and RARβ; experiment: QRT-PCR of atRA responsive genes CYP26B1 and RARβ mRNA in human aortic smooth muscle cells; assay type: cell-based; conditions: AOSMCs
Method: FIG. 1 illustrates the induction of CYP26B1 and RARβ mRNA at different concentrations of test compound: A) CYP26 and B) RARβ in human smooth muscle cells treated with 0.001-10 μM of the test compound. For all experiments n=3; *P≤0.05, **P<0.01 and ***P<0.001.
FIG. 2 are diagrams of CYP26B1 and RARβ mRNA expression in human smooth muscle cells upon treatment with atRA and/or test compound: A) CYP26B1 and B) RARβ mRNA expression in human smooth muscle cells treated with either 1 μm of atRA, test compound or combination of both for 48 h. The experiment was performed in three independent runs; *P≤0.05, **P<0.01 and ***P<0.001.
Human aortic smooth muscle cells (AOSMCs) were treated with different concentrations of a compound of Formula II (0.001-10 μM; FIGS. 1A and B). AOSMCs were incubated with different concentration (0.001-10 μM) of compound according to Formula II, or DMSO as control, at 37 C for 24 h. Total RNA were isolated by using E.Z.N.A total RNA kit (VWR Stockholm Sweden) and cDNA synthesis was performed through high capacity reverse transcription kits (applied Biosystems, Foster City, Calif., USA) according to manufacturers instructions.
Next, human AOSMCs were treated with either 1 μM of atRA or a compound of Formula II alone, or a combination of both for 48 h. The purification and analysis procedures were as described above. […] The results strongly indicate that the compound of Formula II increases retinoid signalling.

purified CYP26B1 = biological target: T1, purified CYP26B1 (Homo sapiens, UniProt Q9NR63); experiment: Enzymatic assay on purified CYP26B1 with oxidoreductase and NADPH, [3H] atRA, HPLC; assay type: biochemical; conditions: 5 μM, 5 nM CYP26B1, 50 nM [3H] atRA, 1 mM NADPH, 10 sec to 10 min
T1 construct: made in house
T1 sequence (Q9NR63 1-512): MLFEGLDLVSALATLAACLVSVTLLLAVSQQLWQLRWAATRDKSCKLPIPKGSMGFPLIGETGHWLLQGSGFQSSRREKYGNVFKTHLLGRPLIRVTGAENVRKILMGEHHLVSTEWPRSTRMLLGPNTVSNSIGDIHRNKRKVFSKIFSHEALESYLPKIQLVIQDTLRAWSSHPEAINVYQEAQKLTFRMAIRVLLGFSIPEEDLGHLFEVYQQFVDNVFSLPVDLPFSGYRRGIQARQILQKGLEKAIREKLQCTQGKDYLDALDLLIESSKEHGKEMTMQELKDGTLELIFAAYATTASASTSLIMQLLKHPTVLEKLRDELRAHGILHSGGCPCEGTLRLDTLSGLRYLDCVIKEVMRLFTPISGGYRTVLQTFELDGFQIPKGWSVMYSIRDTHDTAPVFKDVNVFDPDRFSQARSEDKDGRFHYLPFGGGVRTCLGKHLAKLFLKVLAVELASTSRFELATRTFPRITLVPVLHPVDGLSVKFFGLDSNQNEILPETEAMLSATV
Method: FIG. 4 is a graph showing results from an enzymatic assay carried out on purified CYP26B1, incubated with 5 or 25 μM of the test compound in the presence of oxidoreductase and NADPH, at different time points. The control experiment was performed without initiation with NADPH. For all experiments n=3.
To investigate the efficiency of the compound of Formula II in blocking CYP26B1, CYP26B1 was purified and subsequently incubated with 5 and 25 μM of compound of Formula II for different time points (10 s to 10 min). This experiment thus excludes any other possible metabolic route that potentially could have been present in the cellular experiments. Purified CYP26B1 was stored in buffer containing 50 mM K2HPO4, 0.5 mM EDTA and 20% of glycerol, pH 7.4 at −80° C. The assay was performed as follows: 5 nM of CYP26B1 and 10 nM oxidoreductase was preincubated. 5 or 25 μM of the compound of Formula II and 50 nM [^3H] atRA were added followed by addition of 1 mM NADPH in total volume of 100 μl of Kpi buffer and incubated for 10 sec to 10 min. The reaction was stopped by adding 100 μl absolute ethanol. The sample was subsequently extracted and analysed by HPLC. For control, experiments were performed as above but without initiation of the reaction by NADPH.

CYP26B1 [2] = biological target: T2, CYP26B1 (Homo sapiens, UniProt Q9NR63); experiment: [3H] atRA catabolism in CYP26B1 transfected COS-1 cells, HPLC analysis; assay type: cell-based; set-up: expressed in transfected cells; host or cells: COS-1; conditions: 1 or 10 μM for 1 h, then [3H] atRA for 2 h
T2 sequence (Q9NR63 1-512): T1 sequence (Q9NR63 1-512)
Method: (§1) FIG. 3 illustrates quantification of atRA levels by HPLC in human smooth muscle cells and transfected COS-1 cells: A) Human smooth muscle cells were treated with 1 or 10 μM of the new CYP26 inhibitor for 1 h followed by a 4 h [^3H] atRA incubation. B) COS-1 transfected by 1 μg/μL of CYP26B1 and incubated with 1 or 10 μM of test compound followed by a 2 h [^3H] atRA incubation. For all experiments n=3; *P<0.05, **P<0.01 and ***P<0.001.
To investigate the specificity of our candidate to inhibit CYP26B1-mediated catabolism of atRA, COS-1 cells were transfected with CYP26B1 or an empty vector (in which case no CYP26B1 can be produced). COS-1 was maintained in Dulbecco's Modified Eagle's Medium (DMEM; Life Technologies, Carsbad, Calif., USA) and transfection of COS-1 was performed in 12 well plates using 1 μg/μl of CYP26B1 and 2 μl of lipofectamin 2000 in 250 μl of Opti-MEM (Opti-MEM: Modified Eagle's Minimum Essential Media; Life Technologies, Carlsbad, Calif., USA). The mixture was incubated at room temperature for 20 minutes and added to the plate for 4 h followed by addition of growth medium for 24 h. The next day, the medium was replaced by fresh DMEM and treated by 1 or 10 μM of the compound according to Formula II for 1 h followed by exposure to 1 μCl/ml of [^3H] atRA for 2 h, and subsequent HPLC analysis.

CYP26B1 [3] = biological target: T2, CYP26B1; experiment: [3H] atRA catabolism in human smooth muscle cells, HPLC analysis; assay type: cell-based; set-up: endogenous in cells; host or cells: human aortic smooth muscle cells (AOSMC); conditions: AOSMCs, 1 or 10 μM for 1 h, then [3H] atRA for 4 h
Method: as §1
AOSMCs were seeded out in density of 2×10^5 in 6 well plates incubated with two different concentrations (1 and 10 μM) of compound according to Formula II for 1 h followed by exposure to 1 μCl/ml of [^3H] atRA for 4 h. Cells were thereafter washed using BSA 1 mg/ml of PBS followed by HPLC analysis.

[4] = 1 μM in combination with atRA, 48 h
[5] = 0.001-10 μM, 24 h, normalized to Cyclophilin A, vs DMSO control

SMILES: Cn1nnnc1SCCC(=O)NCc1ccc(C(=O)O)cc1 [compound of Formula II]
- effect of atRA on induction of CYP26B1 mRNA [1, 4]: significantly increased the effects of atRA on the induction
- effect of atRA on induction of RARβ mRNA [1, 4]: significantly increased the effects of atRA on the induction
- expression of CYP26B1 mRNA [1, 5]: significantly induced in a dose-dependent manner
- expression of RARβ mRNA [1, 5]: significantly induced in a dose-dependent manner
- RA degradation by purified CYP26B1 (purified CYP26B1): efficiently inhibited RA degradation
- levels of atRA (CYP26B1 [2]): significantly increased the levels of atRA
- degradation of atRA in the cells (CYP26B1 [3]): greatly reduces the degradation of atRA
